PubChem BioAssay (NCI)
Several values for one entry are separate records, joined by “and”; a condition that tells them apart may be missing. Identical values can stand only once.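 Cells were grown in 96-well plates and exposed to each compound for 48 hours at five concentrations; endpoints were interpolated linearly between bracketing concentrations, or set to the highest concentration if not reached. GI50 is the concentration that inhibits growth by half. TGI is the concentration that stops growth completely.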

What was measured:
Test in all cases: NCI tumour cell line growth inhibition, 48 h
HCC-2998 colon = test system: HCC-2998 colon
HCT-15 colon = test system: HCT-15 colon
HL-60(TB) leukemia = test system: HL-60(TB) leukemia
K-562 leukemia = test system: K-562 leukemia
NCI-H522 lung = test system: NCI-H522 lung
OVCAR-3 ovarian = test system: OVCAR-3 ovarian
RXF 393 renal = test system: RXF 393 renal
SF-539 CNS = test system: SF-539 CNS
SN12C renal = test system: SN12C renal
UACC-62 melanoma = test system: UACC-62 melanoma

Row | Compound | GI50 (HCC-2998 colon) | TGI (HCC-2998 colon) | GI50 (HCT-15 colon) | TGI (HCT-15 colon) | GI50 (HL-60(TB) leukemia) | TGI (HL-60(TB) leukemia) | GI50 (K-562 leukemia) | TGI (K-562 leukemia) | GI50 (NCI-H522 lung) | TGI (NCI-H522 lung) | GI50 (OVCAR-3 ovarian) | GI50 (RXF 393 renal) | TGI (RXF 393 renal) | GI50 (SF-539 CNS) | TGI (SF-539 CNS) | GI50 (SN12C renal) | TGI (SN12C renal) | GI50 (UACC-62 melanoma) | TGI (UACC-62 melanoma) | TGI (OVCAR-3 ovarian)
1 | C[C@@H]1C[C@@H]([C@H](O)CC2CC(=O)NC(=O)C2)C(=O)[C@@H](C)C1 | 0.325 µM | 7.93 µM and 3.63 µM | 0.284 µM | 15.9 µM and 9.96 µM | 0.202 µM | 2.14 µM and 0.43 µM | 0.165 µM | 11.9 µM and 2.93 µM | 0.126 µM | 0.643 µM and 0.549 µM | 0.675 µM | 0.135 µM | 1.48 µM and 0.462 µM | 0.214 µM | 2.7 µM and 0.838 µM | 0.106 µM | 7.38 µM and 0.793 µM | 0.321 µM | 8.14 µM and 10.5 µM | –
2 | [N-]=[N+]=CC(=O)CCC(N)C(=O)O (stereo not given) | 62.7 µM | > 250 µM | 2 µM | > 222 µM | 2.3 µM | 208 µM | 3.27 µM | > 250 µM | 0.963 µM | > 149 µM | 1.45 µM | 24.6 µM | 210 µM | 6.31 µM | 48.7 µM and > 250 µM | 4.86 µM | 248 µM | 3.82 µM | > 147 µM | > 244 µM
3 | C1=CC(=P(c2ccccc2)(c2ccccc2)c2ccccc2)C=C1 | – | 24.3 µM | – | > 100 µM | – | 9.01 µM | – | 11.3 µM | – | 10.1 µM | – | – | 28.2 µM | – | 29.1 µM | – | 43.4 µM | – | 20 µM | 23.7 µM
4 | Nc1cc2c3c(cccc3c1)C(=O)N(CCN1CCCC1)C2=O | 2.78 µM | 15 µM | 2.02 µM | > 100 µM | 4.16 µM | > 100 µM | 3.75 µM | > 37.6 µM | 3.46 µM | 19.4 µM | 5.26 µM | 6.43 µM | 42.3 µM | 3.87 µM | 18.2 µM | 2.73 µM | > 84.8 µM | 2.47 µM | 9.99 µM | 29.3 µM
5 | NC(N)=N/N=C\c1ccc(OCc2ccccc2)cc1 | 1.67 µM | 3.2 µM | 1.97 µM | 5.37 µM | 2.56 µM | 4.87 µM | 2.65 µM | 5.91 µM | 1.52 µM | 3.15 µM | 2.2 µM | 1.79 µM | 4.26 µM | 1.7 µM | 4.06 µM | 1.97 µM | 5.35 µM | 1.57 µM | 3.4 µM | 5.75 µM
6 | Cc1cccc(N2C(=O)/C(=C/C(Cl)=C/c3ccc([N+](=O)[O-])cc3)SC2=S)c1C | 1.72 µM | 3.54 µM | 0.874 µM | 4.77 µM | 1.91 µM | 6.94 µM | 0.793 µM | > 100 µM | 2.18 µM | 5.58 µM | 1.83 µM | 1.63 µM | 3.52 µM | 2.37 µM | 6.76 µM | 2.03 µM | 5.05 µM | 1.7 µM | 3.86 µM | 3.87 µM
7 | COc1ccc2c(c1)C(=O)c1c-2c(OCCCN(C)C)nc2cc(Br)ccc12 | 10.3 µM | 22.7 µM | 4.75 µM | 18.3 µM | 29.4 µM | > 100 µM | 6.75 µM | 23.1 µM | 7.05 µM | 21.9 µM | 3.45 µM | 1.7 µM | 3.4 µM | 1.69 µM | 3.16 µM | 2.01 µM | 4.51 µM | 12.5 µM | 26.4 µM | 13.4 µM
8 | COc1ccc(-c2ccc(OC)c(OC)c2OC)cc1 | 2.65 µM | 32 µM | 0.766 µM | > 100 µM | 1.04 µM | 9.93 µM | 0.431 µM | > 100 µM | 1.56 µM | > 27.9 µM | 1.41 µM | 2.83 µM | > 100 µM | 1.24 µM | 5.31 µM | 6.88 µM | > 100 µM | 3.29 µM | > 100 µM | 4.49 µM
9 | C[C@@]1(F)[C@H](O)[C@@H](CO)O[C@H]1n1ccc(=O)[nH]c1=O | > 100 µM | > 100 µM | > 100 µM | > 100 µM | > 100 µM | > 100 µM | > 100 µM | > 100 µM | > 100 µM | > 100 µM | > 100 µM | > 100 µM | > 100 µM | > 100 µM | > 100 µM | > 100 µM | > 100 µM | > 100 µM | > 100 µM | > 100 µM
10 | O=C(Nc1n[nH]c2cc(-c3cc(F)ccc3F)ccc12)C1CC1 | 14.4 µM | > 25 µM | 8.39 µM | > 25 µM | 7.81 µM | > 25 µM | 7.47 µM | > 25 µM | 9.15 µM | > 25 µM | 9.3 µM | 17.3 µM | > 25 µM | 13.5 µM | > 25 µM | 15.7 µM | > 25 µM | 19.5 µM | > 25 µM | 24.2 µM
11 | CC1CCC2C(C)C(=O)OC2C2(C)C(=O)C=CC12 (stereo not given) | – | > 10 µM | – | > 10 µM | – | > 10 µM | – | > 10 µM | – | > 10 µM | – | – | > 10 µM | – | > 10 µM | – | > 10 µM | – | > 10 µM | > 10 µM
12 | O=c1[nH]c(C2CCCN2)nc2c1oc1ccc(Cl)cc12 (stereo not given) | > 100 µM | > 100 µM | > 100 µM | > 100 µM | > 100 µM | > 100 µM | > 84.4 µM | > 100 µM | 26.9 µM | > 100 µM | > 100 µM | > 70.2 µM | > 100 µM | 36.9 µM | > 100 µM | > 100 µM | > 100 µM | 98.8 µM | > 100 µM | > 100 µM
13 | COc1cc(C2CC(c3ccc(Nc4nc(NCCO)nc(NCCO)n4)cc3)=NN2c2cc(Cl)cc(Cl)c2)cc(OC)c1OC (stereo not given) | 2.14 µM | 4.84 µM | 1.5 µM | 3.13 µM | 1.5 µM | 3.43 µM | 1.47 µM | 3.58 µM | 2.25 µM | 9.21 µM | 1.62 µM | 0.568 µM | 2.34 µM | 1.2 µM | 2.57 µM | 1.75 µM | 3.82 µM | 1.58 µM | 3.04 µM | 3.13 µM
14 | O=C1NC(O)n2c(=O)[nH]c(=O)n21 (stereo not given) | – | > 100 µM | – | > 100 µM | – | > 100 µM | – | > 100 µM | – | > 100 µM | – | – | > 100 µM | – | > 100 µM | – | > 100 µM | – | > 100 µM | > 100 µM
15 | COC1=CC(c2ccc[nH]2)=N/C1=C\c1[nH]c(C)c(C(=O)CCCCCCCCC(=O)O[C@H]2CC[C@H]3C4CCc5cc(O)ccc5C4CC[C@]23C)c1C (stereo not given in full) | 0.623 µM | > 50 µM | 1.55 µM | > 50 µM | 0.289 µM | > 50 µM | 0.267 µM | > 50 µM | 0.277 µM | > 33.9 µM | 0.493 µM | 1.21 µM | 24.5 µM | 0.46 µM | > 50 µM | 0.6 µM | > 50 µM | 0.182 µM | 1.09 µM | 15 µM
16 | CCOc1ccc(NC(=O)/C(CC(=O)c2c[n+](=O)c3ccccc3n2[O-])=N\OCCCc2ccccc2)cc1 | – | > 100 µM | – | > 100 µM | – | > 100 µM | – | > 100 µM | – | > 100 µM | – | – | > 100 µM | – | > 100 µM | – | > 100 µM | – | > 100 µM | > 100 µM
17 | COc1ccc2[nH]c(C(=O)N3CCN(C(=O)OCc4ccc5c(Cl)cc(Cl)c(O)c5n4)CC3)cc2c1 | 1.7 µM | 3.32 µM | 0.368 µM | 1.59 µM | 0.977 µM | 2.85 µM | 0.543 µM | 4.41 µM | 0.828 µM | 2.35 µM | 0.504 µM | 0.557 µM | 1.81 µM | 1.31 µM | 2.58 µM | 1.27 µM | 2.56 µM | 1.28 µM | 2.59 µM | 1.83 µM
18 | c1ccc2c(c1)[nH]c1c2nc2ccccn21 | – | > 100 µM | – | > 100 µM | 42.8 µM and > 100 µM | > 100 µM | – | > 100 µM | – | > 100 µM | – | – | > 100 µM | – | > 100 µM | – | > 100 µM | – | > 100 µM | 59.8 µM and > 100 µM
19 | Clc1ccccc1C(Nc1cnccn1)Nc1cnccn1 | – | > 100 µM | – | > 100 µM | – | > 100 µM | – | > 100 µM | – | > 100 µM | – | – | > 100 µM | – | > 100 µM | – | > 100 µM | – | > 100 µM | > 100 µM
20 | O=C1/C(=C/c2ccccc2)Oc2cc(O)ccc21 | – | > 100 µM | – | > 100 µM | – | > 100 µM | – | > 100 µM | – | > 100 µM | – | – | > 100 µM | – | > 100 µM | – | > 100 µM | – | > 100 µM | > 100 µM
21 | O=C1C(=O)c2c(nc3ccc(C(F)(F)F)cn23)-c2ccccc21 | 0.499 µM | 0.988 µM | 0.202 µM | 0.656 µM | 0.201 µM | 0.6 µM | 0.175 µM | 0.787 µM | 0.206 µM | 0.549 µM | 0.179 µM | 0.254 µM | 0.616 µM | 0.169 µM | 0.313 µM | 0.186 µM | 0.354 µM | 0.179 µM | 0.343 µM | 0.443 µM
22 | O=c1[nH]ccc(CNC23CC4CC(CC(C4)C2)C3)c1O | – | > 100 µM | – | > 100 µM | – | > 100 µM | – | > 100 µM | – | 52.7 µM | – | – | > 100 µM | – | > 100 µM | – | > 100 µM | – | > 100 µM | > 100 µM
